{"source": "paper PMC6388989", "about": "(Cancer Management and Research, 2019)", "key": {"NCI-H460 cells [1]": {"system": "NCI-H460 cells", "format": "cell-based, human"}, "NCI-H460 cells [2]": {"system": "NCI-H460 cells", "format": "cell-based, human", "remark": "listed apart in the source"}, "NCI-H460 cells [3]": {"system": "NCI-H460 cells", "format": "cell-based, human", "conditions": "48 hours"}, "NCI-H460 cells [4]": {"system": "NCI-H460 cells", "format": "cell-based, human", "conditions": "48 hours", "remark": "listed apart in the source"}, "H460 cells [5]": {"system": "H460 cells", "format": "cell-based, human"}, "[6]": {"system": "marker genes in NCI-H460 cells", "format": "cell-based, human", "conditions": "48 hours"}, "H460 cells [7]": {"system": "H460 cells", "format": "cell-based, human", "remark": "listed apart in the source"}, "NCI-H460 cells [8]": {"system": "NCI-H460 cells", "format": "cell-based, human", "conditions": "48 hours", "remark": "listed apart in the source"}, "NCI-H460 cells [9]": {"system": "NCI-H460 cells", "format": "cell-based, human", "remark": "listed apart in the source"}, "NIH-3T3 cells": {"system": "NIH-3T3 cells", "conditions": "at 50 µM"}, "[10]": {"system": "protein markers in NCI-H460 cells", "format": "cell-based, human", "conditions": "48 hours"}}, "note": "“Also recorded” adds a separate entry of the source."}
{"smiles": "C=C(C)[C@@H]1CC[C@]2(CO)CC[C@]3(C)[C@H](CC[C@@H]4[C@@]5(C)CC[C@H](O)C(C)(C)[C@@H]5CC[C@]43C)[C@@H]12", "note": "[Betulin (3), Lup-20 (29)-ene-3, 28-diol]", "values": [{"measurement": "morphology of 3T3 cells", "setting": "3T3 cells", "value": "regained their normal morphology and started to propagate"}, {"measurement": "reduction in wound healing rates of treated vs untreated cells", "setting": "NCI-H460 cells [1]", "value": "approximate threefold reduction"}, {"measurement": "activity against cancer cells compared to normal 3t3 cells", "setting": "NCI-H460 cells [2]", "value": "four times more active"}, {"measurement": "mitochondrial membrane potential (Δψm)", "setting": "NCI-H460 cells [3]", "value": "collapse of MMP"}, {"measurement": "invasive ability of NCI-H460 cells", "setting": "NCI-H460 cells [4]", "value": "inhibited in a dose-dependent manner"}, {"measurement": "morphological changes of H460 cells", "setting": "H460 cells [5]", "value": "membrane blebbing and formation of apoptotic bodies"}, {"measurement": "BAK gene expression", "setting": "[6]", "value": "upregulated"}, {"measurement": "BAX gene expression", "setting": "[6]", "value": "upregulated"}, {"measurement": "BCL-2L1 gene expression", "setting": "[6]", "value": "significantly downregulated"}, {"measurement": "COX-2 gene expression", "setting": "[6]", "value": "inhibited"}, {"measurement": "HRK gene expression", "setting": "[6]", "value": "upregulation"}, {"measurement": "VEGF gene expression", "setting": "[6]", "value": "inhibited"}, {"measurement": "caspase-3 gene expression", "setting": "[6]", "value": "significantly upregulated"}, {"measurement": "caspase-6 gene expression", "setting": "[6]", "value": "significantly upregulated"}, {"measurement": "caspase-8 gene expression", "setting": "[6]", "value": "inhibited; also recorded: significantly downregulated"}, {"measurement": "caspase-9 gene expression", "setting": "[6]", "value": "significantly upregulated"}, {"measurement": "p53 gene expression", "setting": "[6]", "value": "significantly downregulated"}, {"measurement": "colony formation", "setting": "H460 cells [7]", "value": "completely eradicated cancer cells"}, {"measurement": "nuclear morphology", "setting": "NCI-H460 cells [8]", "value": "highly condensed nucleus, apoptotic bodies and DNA fragmentation"}, {"measurement": "induction of apoptosis (FACS)", "setting": "NCI-H460 cells [9]", "value": "significantly underwent apoptosis in a dose-dependent manner"}, {"measurement": "cytotoxicity to normal NIH-3T3 cells", "setting": "NIH-3T3 cells", "value": "noncytotoxic"}, {"measurement": "BCL-2L1 protein expression (immunocytochemistry)", "setting": "[10]", "value": "marked inhibition"}, {"measurement": "caspase-3 protein expression (immunofluorescence)", "setting": "[10]", "value": "significant upregulation"}, {"measurement": "caspase-6 protein expression (immunofluorescence)", "setting": "[10]", "value": "significant upregulation"}, {"measurement": "caspase-8 protein expression (immunofluorescence)", "setting": "[10]", "value": "decreased with the increase in betulin treatment"}, {"measurement": "expression of proliferative marker Ki-67", "setting": "[10]", "value": "significant inhibition"}, {"measurement": "osteopontin levels (immunocytochemistry)", "setting": "[10]", "value": "positively inhibited"}]}
